Data reported in patent US20220249416A1, “SYNERGISTIC COMBINATIONS OF SYNTHETIC LYSINE ANALOGS, DERIVATIVES, MIMETICS, OR PRODRUGS AND PHARMACEUTICAL AGENTS FOR ENHANCED EFFICACY” (priority 2019, published 2022).

Tests used:
HSV Strain 17syn+ = experiment: Acyclovir escape mutants after 10 serial passages in rabbit skin cells; format: cell-based, Herpes Simplex Virus; details: 10 passages, 50 μM acyclovir alone or with 2% tranexamic acid; plated with 100 μM acyclovir vs. none
[1] = system: HO-1, a clinical isolate of HSV-1 that is multiple drug resistant; experiment: Viral yields of multiple drug resistant HSV-1 isolate HO-1, plaque assay; format: cell-based, Herpes Simplex Virus Type 1; details: 2% tranexamic acid, MOI 5, 24 hpi
cold sores = experiment: Topical tranexamic acid on cold sore outbreaks in human subjects; format: in vivo
HSV-1 = experiment: Effect of 2% TA on HSV-1 DNA replication; format: cell-based, Herpes Simplex Virus Type 1; details: MOI 0.05 and 0.5
rabbit skin cells = details: 48 h

Compound | Ratio of Acyclovir Resistant (ACVr) Virus (HSV Strain 17syn+) | effect on HO-1 viral yields [1] | time to resolution of cold sore outbreak symptoms (cold sores; 3% (w/v) topically several times a day, three human subjects) | cold sore outbreaks during one year (usual 3 to 5) (cold sores; 3 to 10% (w/v) applied to face daily for approximately one year, one subject) | time to healing of cold sore (cold sores; 5% (w/v) aqueous solution, about 0.25 mL, 5 times, one subject) | outcome of cold sore outbreak (cold sores; 10% (w/v) topically a single time, one subject) | replication of HSV DNA (HSV-1) | CC50 (rabbit skin cells)
Nc1nc2c(ncn2COCCO)c(=O)[nH]1 [Acyclovir, acyclovir] | 0.0044 |  |  |  |  |  |  | 
NC[C@H]1CC[C@H](C(=O)O)CC1 [tranexamic acid] |  | effective | ≤ 48 h | one | ≤ 36 h | the blister was gone and the outbreak had ceased | significantly reduces the replication of HSV DNA | 320 mM
